Reference: ChEMBL document CHEMBL1134808, “Evolution of anti-HIV drug candidates. Part 1: From alpha-anilinophenylacetamide (alpha-APA) to imidoyl thiourea (ITU)” (Bioorg Med Chem Lett, 2001)
Counter-ions that a name gives are not always drawn.

Key:
[1] = system: Human immunodeficiency virus 1; assay: Compound potency to achieve protection of MT-4 cells from HIV-1 cytopathicity; assay type: functional, organism-based, MT4
[2] = system: MT4; assay: Compound was tested for potency to achieve protection of MT-4 cells from 103N strain of HIV-1 virus; assay type: functional, cell-based; details: Homo sapiens
[3] = system: MT4; assay: Compound was tested for potency to achieve protection of MT-4 cells from 181C strain of HIV-1 virus; assay type: functional, cell-based; details: Homo sapiens
[4] = system: MT4; assay: Compound was tested for potency to achieve protection of MT-4 cells from 188L strain of HIV-1 virus; assay type: functional, cell-based; details: Homo sapiens
[5] = system: MT4; assay: Compound was tested for potency to achieve protection of MT-4 cells from 100I strain of HIV-1 virus; assay type: functional, cell-based; details: Homo sapiens
[6] = system: MT4; assay: Compound was tested for potency to achieve protection of MT-4 cells from 101E strain of HIV-1 virus; assay type: functional, cell-based; details: Homo sapiens
[7] = system: MT4; assay: Compound was tested for potency to achieve protection of MT-4 cells from 106A strain of HIV-1 virus; assay type: functional, cell-based; details: Homo sapiens
[8] = system: MT4; assay: Compound was tested for potency to achieve protection of MT-4 cells from LAI strain of HIV-1 virus; assay type: functional, cell-based; details: Homo sapiens
[9] = system: MT4; assay: Compound was tested for potency to achieve protection of MT-4 cells from 190A strain of HIV-1 virus; assay type: functional, cell-based; details: Homo sapiens
[10] = Human immunodeficiency virus 1, MT4

| Structure (SMILES) | IC50 [1, 10] | further results |
| --- | --- | --- |
| N#Cc1ccc(NC(=S)NC(=N)Cc2ccccc2Cl)cc1 | 14 nM |  |
| N#Cc1ccc(NC(=S)NC(=N)CCc2c(Cl)cccc2Cl)cc1 | 525 nM |  |
| CN(/C(S)=N/C(=N)Cc1c(Cl)cccc1Cl)c1ccc(C#N)cc1 | 58900 nM |  |
| NC(=O)C(NCc1ccccc1[N+](=O)[O-])c1c(Cl)cccc1Cl (stereo not given) | > 250000 nM |  |
| N#Cc1ccc(NC(=N)NC(=N)Cc2c(Cl)cccc2Cl)cc1 | 7940 nM |  |
| CN/C(Cc1c(Cl)cccc1Cl)=N\C(S)=N\c1ccc(C#N)cc1 | 3.9 nM |  |
| N=C(Cc1c(Cl)cccc1Cl)NC(=S)Nc1ccc(Cl)cc1 | 13 nM |  |
| NC(=O)C(Nc1ccccc1[N+](=O)[O-])c1c(Cl)cccc1Cl (stereo not given) | 100 nM |  |
| CC(C)Nc1cccnc1N1CCN(C(=O)c2cc3cc(NS(C)(=O)=O)ccc3[nH]2)CC1 [DELAVIRDINE MESYLATE] |  | IC50 [2]: 2510 nM; IC50 [3]: 2000 nM; IC50 [4]: 1260 nM; IC50 [5]: 2510 nM; IC50 [6]: 158 nM; IC50 [7]: 1590 nM; IC50 [8]: 63 nM; IC50 [9]: 63 nM |
| N=C(Cc1c(Cl)cccc1Cl)NC(=S)Nc1c(Cl)cc(Cl)cc1Cl | 42700 nM |  |
| N#Cc1ccc(NC(=S)NC(=N)Cc2ccc(Cl)cc2)cc1 | 148 nM |  |
| NC(=O)C(/N=C(\S)Nc1ccc(Cl)cc1)c1c(Cl)cccc1Cl (stereo not given) | 160 nM |  |
| N#Cc1ccccc1NC(=S)NC(=N)Cc1c(Cl)cccc1Cl | 631000 nM |  |
| N=C(Cc1c(Cl)cccc1Cl)NC(=S)NCCc1ccc(Cl)cc1 | 1620 nM |  |
| N#Cc1ccc(NC(=S)/N=C(/Cc2c(Cl)cccc2Cl)Nc2ccccc2)cc1 | 1320 nM |  |
| N#Cc1ccc(NC(=O)NC(=N)Cc2c(Cl)cccc2Cl)cc1 | 15 nM |  |
| N=C(Cc1c(Cl)cccc1Cl)NC(=S)Nc1ccc(Cl)cc1Cl | 347 nM |  |
| N#Cc1ccc(NC(=S)NC(=O)Cc2c(Cl)cccc2Cl)cc1 | 631000 nM |  |
| N#Cc1ccc(NC(=S)NC(=N)Cc2c(Cl)cccc2Cl)cc1 | 3 nM | IC50 [2]: 589 nM; IC50 ([1]; mt4): 2.5 nM; IC50 [3]: 511 nM; IC50 [4]: 318 nM; IC50 [5]: 513 nM; IC50 [6]: 19 nM; IC50 [7]: 382 nM; IC50 [8]: 3 nM; IC50 [9]: 2 nM |
| NC(=O)C(/N=C(\S)Nc1cccc(Cl)c1)c1c(Cl)cccc1Cl (stereo not given) | 5200 nM |  |
| NC(=O)C(NC(=O)Nc1ccccc1[N+](=O)[O-])c1c(Cl)cccc1Cl (stereo not given) | > 320000 nM |  |

| Structure (SMILES) | IC50 [1, 10] | further results |
| --- | --- | --- |
| Cc1ccccc1CC(=N)/N=C(\S)Nc1ccc(C#N)cc1 | 26 nM |  |
| NC(=O)C(Nc1ccccc1Cl)c1c(Cl)cccc1Cl (stereo not given) | 400 nM |  |
| C/N=C(/Cc1c(Cl)cccc1Cl)NC(=O)Nc1ccc(C#N)cc1 | 214 nM |  |
| CC(C(=N)/N=C(\S)Nc1ccc(C#N)cc1)c1c(Cl)cccc1Cl (stereo not given) | 158 nM |  |
| N=C(Cc1c(Cl)cccc1Cl)NC(=S)Nc1ccccc1 | 123 nM |  |
| NC(=O)C(Nc1ccc(Cl)cc1)c1c(Cl)cccc1Cl (stereo not given) | > 160000 nM |  |
| N#Cc1cccc(NC(=S)NC(=N)Cc2c(Cl)cccc2Cl)c1 | 126 nM |  |
| N=C(Cc1c(Cl)cccc1Cl)NC(=S)NCc1ccc(Cl)cc1 | 692 nM |  |
| CCN/C(Cc1c(Cl)cccc1Cl)=N\C(S)=N\c1ccc(C#N)cc1 | 158 nM |  |
| COc1ccccc1CC(=N)/N=C(\S)Nc1ccc(C#N)cc1 | 30 nM |  |
| NC(=O)C(NC(=O)c1ccccc1[N+](=O)[O-])c1c(Cl)cccc1Cl (stereo not given) | > 79000 nM |  |
| N#Cc1ccc(NC(=S)NC(=N)C2(c3c(Cl)cccc3Cl)CC2)cc1 | 1480 nM |  |
| N#Cc1ccc(NC(=S)NC(=N)c2c(Cl)cccc2Cl)cc1 | 22900 nM |  |
| N#Cc1ccc(N/C(S)=N/C(=N)Cc2c(F)cccc2F)cc1 | 6 nM |  |
| N#Cc1ccc(NC(=S)NC(=N)Cc2ccc(Cl)cc2Cl)cc1 | 7 nM |  |
| CC(=O)c1ccc(C)cc1NC(C(N)=O)c1c(Cl)cccc1Cl (stereo not given) [LOVIRIDE] |  | IC50 [2]: 1260 nM; IC50 [3]: 15800 nM; IC50 [4]: 50100 nM; IC50 [5]: 50 nM; IC50 [6]: 63 nM; IC50 [7]: 1000 nM; IC50 [8]: 50 nM; IC50 [9]: 2510 nM |
| N#Cc1ccc(NC(=S)NC(=N)Cc2ccccc2)cc1 | 380 nM |  |
| N#Cc1ccc(NC(=S)NC(=N)Cc2c(Cl)ccc(Cl)c2Cl)cc1 | 5 nM |  |
| N#Cc1ccc(NC(=S)NC(=N)Cc2cccc(Cl)c2)cc1 | 68 nM |  |
| NC(=O)C(/N=C(\S)Nc1ccccc1Cl)c1c(Cl)cccc1Cl (stereo not given) | > 60000 nM |  |
| N#Cc1ccc(NC(=S)NS(=O)(=O)Cc2c(Cl)cccc2Cl)cc1 | 100000 nM |  |
